Common to all, as to type: functional
The test system of assay [1] is PC-9. The assay can be described thus: Growth inhibition of human PC9 cells grown under 3D anchorage-independent soft-agar conditions at 3.33 nM incubated for 14 days by alamar blue dye based assay relative to control. Particulars: PC-9, 336 h, read-out: GI. On the technique in general: The colour change of resazurin is a common sign of viable cells or microbes.
The test system of assay [2] is PC-9. In words: Growth inhibition of human PC9 cells grown under 3D anchorage-independent soft-agar conditions at 0.37 nM incubated for 14 days by alamar blue dye based assay relative to control. Particulars: PC-9, 336 h, read-out: GI.
Assay [3] relates to PC-9. In words: Growth inhibition of human PC9 cells grown under 3D anchorage-independent soft-agar conditions at 0.123 nM incubated for 14 days by alamar blue dye based assay relative to control. The conditions noted are these: PC-9, 336 h, read-out: GI.
The test system of assay [4] is PC-9. The assay can be described thus: Growth inhibition of human PC9 cells grown under 3D anchorage-independent soft-agar conditions at 1.11 nM incubated for 14 days by alamar blue dye based assay relative to control. Particulars: PC-9, 336 h, read-out: GI.
Assay [5] relates to PC-9. The assay can be described thus: Growth inhibition of human PC9 cells grown under 3D anchorage-independent soft-agar conditions at 10 nM incubated for 14 days by alamar blue dye based assay relative to control. The conditions noted are these: PC-9, 336 h, read-out: GI.
Assay [6] has as its system NCI-H1792. The assay can be described thus: Growth inhibition of human NCI-H1792 cells grown under 3D anchorage-independent soft-agar conditions at 111 nM incubated for 14 days by alamar blue dye based assay relative to control. The conditions noted are these: NCI-H1792, 336 h, read-out: GI.
Assay [7] relates to NCI-H358. In words: Growth inhibition of human NCI-H358 cells grown under 3D anchorage-independent soft-agar conditions at 111 nM incubated for 14 days by alamar blue dye based assay relative to control. Particulars: NCI-H358, 336 h, read-out: GI.
The subject of assay [8] is NCI-H358. In words: Growth inhibition of human NCI-H358 cells grown under 3D anchorage-independent soft-agar conditions at 1000 nM incubated for 14 days by alamar blue dye based assay relative to control. The conditions noted are these: NCI-H358, 336 h, read-out: GI.
The subject of assay [9] is NCI-H358. In words: Growth inhibition of human NCI-H358 cells grown under 3D anchorage-independent soft-agar conditions at 12.3 nM incubated for 14 days by alamar blue dye based assay relative to control. Particulars: NCI-H358, 336 h, read-out: GI.
The test system of assay [10] is NCI-H1792. The assay can be described thus: Growth inhibition of human NCI-H1792 cells grown under 3D anchorage-independent soft-agar conditions at 12.3 nM incubated for 14 days by alamar blue dye based assay relative to control. Particulars: NCI-H1792, 336 h, read-out: GI.
Assay [11] deals with NCI-H1792. In words: Growth inhibition of human NCI-H1792 cells grown under 3D anchorage-independent soft-agar conditions at 1000 nM incubated for 14 days by alamar blue dye based assay relative to control. Particulars: NCI-H1792, 336 h, read-out: GI.
Assay [12] has as its system NCI-H358. In words: Growth inhibition of human NCI-H358 cells grown under 3D anchorage-independent soft-agar conditions at 37 nM incubated for 14 days by alamar blue dye based assay relative to control. Particulars: NCI-H358, 336 h, read-out: GI.
Assay [13] relates to NCI-H358. The assay can be described thus: Growth inhibition of human NCI-H358 cells grown under 3D anchorage-independent soft-agar conditions at 333 nM incubated for 14 days by alamar blue dye based assay relative to control. Particulars: NCI-H358, 336 h, read-out: GI.
In assay [14] the test system is NCI-H1792. In words: Growth inhibition of human NCI-H1792 cells grown under 3D anchorage-independent soft-agar conditions at 333 nM incubated for 14 days by alamar blue dye based assay relative to control. The conditions noted are these: NCI-H1792, 336 h, read-out: GI.
Assay [15] has as its system NCI-H1792. The assay can be described thus: Growth inhibition of human NCI-H1792 cells grown under 3D anchorage-independent soft-agar conditions at 37 nM incubated for 14 days by alamar blue dye based assay relative to control. Particulars: NCI-H1792, 336 h, read-out: GI.

For `C=CC(=O)Nc1cccc(Oc2nc(Nc3ccc(N4CCN(C)CC4)cc3)nc3ccsc23)c1` [OLMUTINIB], in the assay on PC-9 [1], the inhibition of growth at 0.00333 µM was determined as 35%. In addition, the inhibition of growth at 0.00037 µM with PC-9 [2] was -3%. Moreover, in the assay on PC-9 [3], the inhibition of growth at 0.000123 µM is -3%. Moreover, the inhibition of growth at 0.00111 µM in the assay with PC-9 [4] was 1%. For the same molecule, the inhibition of growth at 0.01 µM in the assay with PC-9 [5] was 69%.
As for `C=CC(=O)N1CCN(c2ncnc3c(F)c(-c4cc(O)cc5ccccc45)c(Cl)cc23)CC1`, the inhibition of growth at 0.111 µM in the assay with NCI-H1792 [6] is 42%; with NCI-H358 [7] it was 87%. For the same molecule, the inhibition of growth at 1 µM in the assay on NCI-H358 [8] amounted to 180%; with NCI-H1792 [11], 81%. The inhibition of growth at 0.0123 µM with NCI-H358 [9] came out at 17%; in the assay on NCI-H1792 [10], 5%. Further, the inhibition of growth at 0.037 µM was found to be 47% in the assay on NCI-H358 [12] and 29% in the assay on NCI-H1792 [15]. For the same molecule, the inhibition of growth at 0.333 µM with NCI-H358 [13] came out at 139%; in the assay on NCI-H1792 [14], 46%.

These data come from ChEMBL document CHEMBL4420081, “Novel benzylamino substituted quinazolines and derivatives as sos1 inhibitors” (2018).
